The values below come from patent US8473035B2, “Medical imaging systems” (Beth Israel Deaconess Medical Center, priority 2003, dated 2013).

For series [1], the system named is mitochondria and/or endoplasmic reticulum. As to the kind of experiment: partitioning of the dye into subcellular organelles. In kind it is cell-based. The text has this:
(§1) More generally, IR-786 may be used for non-radioactive imaging of areas of ischemia in the living heart, or other visualization of the viability of other tissues.

The test system of another series is blood flow in the heart. Description: imaging of blood flow in the heart of a living laboratory rat after a thoracotomy. Format: in vivo.
From the text: as §1

Series [2] in a line: in vivo early half-life of the dye. To be noted: small molecule form. The text has this: This permits multiple injections during a single procedure.
A short description of series [3]: solubility of the dye in blood.

`CN1C(=CC=C2CCCC(C=CC3=[N+](C)c4ccccc4C3(C)C)=C2Cl)C(C)(C)c2ccccc21.[O-][Cl+3]([O-])([O-])[O-]` [IR-786]: the “partitioning into mitochondria and/or endoplasmic reticulum” value in series [1] is “partitions efficiently into mitochondria and/or endoplasmic reticulum in a concentration-dependent manner”. In the series with blood flow in the heart, the “imaging of blood flow in the heart” value is “successfully applied”.

As for `CC1(C)C(/C=C/C=C/C=C/C=C2\N(CCCCS(=O)(=O)O)c3ccc4ccccc4c3C2(C)C)=[N+](CCCCS(=O)(=O)[O-])c2ccc3ccccc3c21` [Indocyanine green, indocyanine green], the “in vivo early half-life” value in series [2] was “shorter half-life”. Further, the solubility in blood result in series [3] was “somewhat less soluble in blood”.
